Consider one substance from article PMC11187126, “Structure and dynamics of the pyroglutamylated RF-amide peptide QRFP receptor GPR103” (Nature Communications, 2024).

Like-named read-outs stand apart in the source and are kept apart here. No end group written: not given here.

The target in this assay is T1, GPR103 F322^7.43A (Homo sapiens, UniProt Q96P65, F322A).
T1 construct: we used human full-length QRFPR-encoding plasmids; expressed in transfected cells; host or cells: HEK293 cells (HEK293A in the flow cytometry section), pCAGGS vector
T1 sequence (Q96P65 1-431 F322A): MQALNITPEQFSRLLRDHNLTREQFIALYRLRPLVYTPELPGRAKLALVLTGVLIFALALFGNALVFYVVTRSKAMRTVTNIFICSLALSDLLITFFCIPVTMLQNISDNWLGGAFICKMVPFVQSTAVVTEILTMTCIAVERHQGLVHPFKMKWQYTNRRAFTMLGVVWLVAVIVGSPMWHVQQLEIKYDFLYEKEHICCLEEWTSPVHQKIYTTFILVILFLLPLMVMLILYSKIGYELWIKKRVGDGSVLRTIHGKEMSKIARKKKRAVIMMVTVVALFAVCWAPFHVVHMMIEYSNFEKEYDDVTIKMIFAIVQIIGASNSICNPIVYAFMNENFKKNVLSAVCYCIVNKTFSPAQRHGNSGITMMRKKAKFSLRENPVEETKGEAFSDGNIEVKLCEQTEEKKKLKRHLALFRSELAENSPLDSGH
Put plainly: TGFα shedding assay; Exp. level WT (1:50). Format: cell-based. The procedure:
For the TGFα shedding assay and the flow cytometry analysis, we used human full-length QRFPR-encoding plasmids. Specifically, GPR103 was N-terminally modified with an HA signal sequence followed by a FLAG epitope and then a flexible linker ([…]; the FLAG epitope is underlined) and inserted into the pCAGGS vector. Plasmid encoding GPR103 mutants were generated using Quickchange Site-Directed Mutagensis kit (Agilent).
The TGFα shedding assay was performed as described previously with minor modifications. Plasmid transfection was performed in a 6-well plate with a mixture of 500 ng (per well in a 6-well plate) AP-TGFα-encoding plasmid and 200 ng GPR103-encoding plasmid. After 1-day culture, the transfected cells were harvested by trypsinization, pelleted by centrifugation at 190 × g for 5 min, and washed once with 5 mM HEPES (pH 7.4)-containing Hank’s Balanced Salt Solution (HBSS). After centrifugation, the cells were resuspended in 8 mL of the HEPES-containing HBSS. The cell suspension was seeded in a 96-well culture plate (cell plate) at a volume of 90 μL (per well hereafter) and incubated in a 37 °C incubator with 5% CO2 for 30 min. […] After spinning the cell plates at 190 × g for 2 min, 80 μL of conditioned media was transferred to an empty 96-well plate (conditioned media (CM) plate). Then, 80 μL of AP reaction solution (10 mM p-nitrophenylphosphate (p-NPP), 120 mM Tris-HCl (pH 9.5), 40 mM NaCl, and 10 mM MgCl2) was dispensed into the cell plates and the CM plates. Absorbance at 405 nm of the plates was measured using a microplate reader (SpectraMax 340 PC384, Molecular Devices) before and after 1-h incubation at room temperature. Ligand-induced AP-TGFα release was calculated by subtracting spontaneous AP-TGFα release signal from ligand-induced AP-TGFα release signal. The AP-TGFα release signals were fitted to a four-parameter sigmoidal concentration–response curve, using the Prism 10 software (GraphPad Prism). For each replicate experiment, the pEC50 parameter (negative logarithmic values of EC50 values) of the individual GPR103 mutants were normalized to that of the wild-type GPR103 performed in parallel, and resulting ∆pEC50 values were used to denote ligand response activity of the mutants. […]
Exp. le vel: WT (1:5 0)Exp. le vel: WT (1:5 0)Exp. le vel: WT (1:5 0)Exp. le vel: WT (1:2 0)Exp. le vel: WT (1:2 0)Exp. le vel: WT (1:1 0) […]
L1 4N - t e r mA F2 5N - t e r mA I 2 6N - t e r mA Y 2 9N - t e r mA C 9 82 .5 7A T10 22 .6 1A Exp . l eve l: WT (1 :5)Exp . l evel : >WT (1 :1)Exp. le vel: WT (1:2 0)Exp. le vel: WT (1:2 0)Exp. le vel: WT (1:5 0)Exp . l eve l: WT (1 :1) […]
Exp. le vel: WT (1:1 0)Exp. le vel: WT (1:2 0) C 1 1 83 .2 5AExp. le vel: WT (1:5 0)Exp. le vel: WT (1:5 0)Exp. le vel: WT (1:2 0)Exp . l eve l: WT (1 :5) […]
Exp. le vel: WT (1:5 0)Exp. le vel: WT (1:1 0)Exp. le vel: WT (1:5 0) E203ECL2AExp . l evel : >WT (1 :1)Exp. le vel: WT (1:5 0)Exp. le vel: WT (1:5 0) […]
Exp . l eve l: WT (1 :1) F28Exp. le vel: WT (1:5 0) C 2 8 56 .4 7AExp. le vel: WT (1:2 0) WExp. le vel: WT (1:2 0) F28Exp. le vel: WT (1:5 0)Exp . l evel : >WT (1 :1) […]
Exp. le vel: WT (1:5 0)Exp. le vel: WT (1:5 0) C 3 2 77 .4 8AExp . l eve l: WT (1 :5)Exp . l evel : >WT (1 :1)Exp . l evel : >WT (1 :1) […]
Suppl eme nt ary Figure 1 | Mutational analysis of GPR103. […]
mutants. Data are presented as mean values ± SEM, normally n=3-5; dots), each performed in triplicate. b-d Cell-surface expression (b) and QRFP26-in-duced activation of GPR103 (c, d) were analyzed by the flow cytometry and the TGFα shedding assay, respectively. From the concentration–response curves (a), Emax (c) and ΔpEC50 (d) values relative to the wild type were calculated. Colors in the mutant bars indicate an expression level matching to that of titrated wild type. Statistical analyses were performed using the ordinary one-way ANOVA followed by Dunnett tests with the expression-matched […]

In the case of TSGPLGNLAEELNGYSRKKGGFSFRF-NH2 [QRFP26], the Emax is 46.65 % WT (Exp. #1); 35.03 % WT (Exp. #2); 42.29 % WT (Exp. #3); 41.3% (mean, read-out: Emax); 42.7 ± 2.8% (n = 3, read-out: Emax). Moreover, the EC50 (usually the concentration needed to bring the measured effect to its halfway point) (n = 3) was 24.5 nM.
